Measured values from PubChem BioAssay (NCI).
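Following 48 hours of exposure in 96-well plates, responses at five concentrations were used to interpolate endpoints linearly. Definition used: TGI = concentration required for complete inhibition of growth.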

Experiments:
Test in all cases: DTP human tumour cell line panel, 48 h
[1] = system: 786-0 renal
[2] = system: A498 renal
[3] = system: A549 NSCLC
[4] = system: ACHN renal
[5] = system: BT-549 breast
[6] = system: CAKI-1 renal
[7] = system: CCRF-CEM leukemia
[8] = system: COLO 205 colon
[9] = system: DU-145 prostate
[10] = system: EKVX NSCLC
[11] = system: HCC-2998 colon
[12] = system: HCT-116 colon
[13] = system: HCT-15 colon
[14] = system: HL-60(TB) leukemia
[15] = system: HOP-62 NSCLC
[16] = system: HS 578T breast
[17] = system: HT29 colon
[18] = system: IGROV1 ovarian
[19] = system: K-562 leukemia
[20] = system: KM12 colon
[21] = system: LOX IMVI melanoma
[22] = system: M14 melanoma
[23] = system: MALME-3M melanoma
[24] = system: MCF7 breast
[25] = system: MDA-MB-231 breast
[26] = system: MDA-MB-435
[27] = system: MDA-N
[28] = system: NCI-H226 lung
[29] = system: NCI-H23 lung
[30] = system: NCI-H460 lung
[31] = system: NCI-H522 lung
[32] = system: NCI/ADR-RES ovarian
[33] = system: OVCAR-3 ovarian
[34] = system: OVCAR-4 ovarian
[35] = system: OVCAR-5 ovarian
[36] = system: OVCAR-8 ovarian
[37] = system: PC-3 prostate
[38] = system: RPMI-8226 leukemia
[39] = system: RXF 393 renal
[40] = system: SF-268 CNS
[41] = system: SF-295 CNS
[42] = system: SF-539 CNS
[43] = system: SK-MEL-2 melanoma
[44] = system: SK-MEL-28 melanoma
[45] = system: SK-MEL-5 melanoma
[46] = system: SK-OV-3 ovarian
[47] = system: SN12C renal
[48] = system: SNB-19 CNS
[49] = system: SNB-75 CNS
[50] = system: SW-620 colon
[51] = system: T-47D breast
[52] = system: TK-10 renal
[53] = system: U251 CNS
[54] = system: UACC-257 melanoma
[55] = system: UACC-62 melanoma
[56] = system: UO-31 renal
[57] = system: MOLT-4 leukemia

**Q.** Which results are given for Cc1csc(-n2nc(C)cc2C)n1?
**A.** TGI [1]: > 100 µM; TGI [2]: > 100 µM; TGI [3]: > 100 µM; TGI [4]: > 100 µM; TGI [5]: > 100 µM; TGI [6]: > 100 µM; TGI [7]: > 100 µM; TGI [8]: > 100 µM; TGI [9]: > 100 µM; TGI [10]: > 100 µM; TGI [11]: > 100 µM; TGI [12]: > 100 µM; TGI [13]: > 100 µM; TGI [14]: > 100 µM; TGI [15]: > 100 µM; TGI [16]: > 100 µM; TGI [17]: > 100 µM; TGI [18]: > 100 µM; TGI [19]: > 100 µM; TGI [20]: > 100 µM; TGI [21]: > 100 µM; TGI [22]: > 100 µM; TGI [23]: > 100 µM; TGI [24]: > 100 µM; TGI [25]: > 100 µM; TGI [26]: > 100 µM; TGI [27]: > 100 µM; TGI [28]: > 100 µM; TGI [29]: > 100 µM; TGI [30]: > 100 µM; TGI [31]: > 100 µM; TGI [32]: > 100 µM; TGI [33]: > 100 µM; TGI [34]: > 100 µM; TGI [35]: > 100 µM; TGI [36]: > 100 µM; TGI [37]: > 100 µM; TGI [38]: > 100 µM; TGI [39]: > 100 µM; TGI [40]: > 100 µM; TGI [41]: > 100 µM; TGI [42]: > 100 µM; TGI [43]: > 100 µM; TGI [44]: > 100 µM; TGI [45]: > 100 µM; TGI [46]: > 100 µM; TGI [47]: > 100 µM; TGI [48]: > 100 µM; TGI [49]: > 100 µM; TGI [50]: > 100 µM; TGI [51]: > 100 µM; TGI [52]: > 100 µM; TGI [53]: > 100 µM; TGI [54]: > 100 µM; TGI [55]: > 100 µM; TGI [56]: > 100 µM

**Q.** For O=c1[nH]nc(Cc2ccccc2)n1/N=C/c1ccc(/C=N/n2c(Cc3ccccc3)n[nH]c2=O)cc1, which TGI [1] is on record?
**A.** > 100 µM

**Q.** What about the TGI [2] of the same compound?
**A.** > 100 µM

**Q.** And the TGI [3]?
**A.** > 100 µM

**Q.** What about the TGI [4] of the same compound?
**A.** > 100 µM

**Q.** What about the TGI [5] of the same compound?
**A.** > 100 µM

**Q.** What about the TGI [6] of the same compound?
**A.** > 100 µM

**Q.** And the TGI [7]?
**A.** 50.7 µM

**Q.** And the TGI [8]?
**A.** > 100 µM

**Q.** What about the TGI [9] of the same compound?
**A.** > 100 µM

**Q.** And the TGI [10]?
**A.** > 100 µM

**Q.** What about the TGI [12] of the same compound?
**A.** > 100 µM

**Q.** What about the TGI [13] of the same compound?
**A.** > 100 µM

**Q.** What about the TGI [14] of the same compound?
**A.** > 100 µM

**Q.** What about the TGI [15] of the same compound?
**A.** > 100 µM

**Q.** What about the TGI [16] of the same compound?
**A.** > 100 µM

**Q.** What about the TGI [17] of the same compound?
**A.** > 100 µM

**Q.** What about the TGI [18] of the same compound?
**A.** > 100 µM

**Q.** What about the TGI [19] of the same compound?
**A.** 50.5 µM

**Q.** What about the TGI [20] of the same compound?
**A.** > 100 µM

**Q.** And the TGI [21]?
**A.** > 100 µM

**Q.** And the TGI [22]?
**A.** > 100 µM

**Q.** What about the TGI [23] of the same compound?
**A.** > 100 µM

**Q.** What about the TGI [24] of the same compound?
**A.** > 100 µM

**Q.** And the TGI [25]?
**A.** > 100 µM

**Q.** What about the TGI [26] of the same compound?
**A.** > 100 µM

**Q.** What about the TGI [27] of the same compound?
**A.** > 100 µM

**Q.** And the TGI [57]?
**A.** 47 µM

**Q.** What about the TGI [28] of the same compound?
**A.** > 100 µM

**Q.** What about the TGI [29] of the same compound?
**A.** > 100 µM

**Q.** And the TGI [30]?
**A.** > 100 µM

**Q.** What about the TGI [31] of the same compound?
**A.** > 100 µM

**Q.** What about the TGI [32] of the same compound?
**A.** > 100 µM

**Q.** And the TGI [33]?
**A.** > 100 µM

**Q.** What about the TGI [34] of the same compound?
**A.** > 100 µM

**Q.** What about the TGI [35] of the same compound?
**A.** > 100 µM

**Q.** And the TGI [36]?
**A.** > 100 µM

**Q.** What about the TGI [37] of the same compound?
**A.** > 100 µM

**Q.** What about the TGI [38] of the same compound?
**A.** > 100 µM

**Q.** And the TGI [39]?
**A.** > 100 µM

**Q.** And the TGI [40]?
**A.** > 100 µM

**Q.** What about the TGI [41] of the same compound?
**A.** > 100 µM

**Q.** What about the TGI [43] of the same compound?
**A.** > 100 µM

**Q.** What about the TGI [44] of the same compound?
**A.** > 100 µM

**Q.** What about the TGI [45] of the same compound?
**A.** > 100 µM

**Q.** And the TGI [47]?
**A.** > 100 µM

**Q.** And the TGI [48]?
**A.** > 100 µM

**Q.** And the TGI [50]?
**A.** > 100 µM

**Q.** And the TGI [51]?
**A.** > 100 µM

**Q.** What about the TGI [52] of the same compound?
**A.** > 100 µM

**Q.** What about the TGI [53] of the same compound?
**A.** > 100 µM

**Q.** And the TGI [54]?
**A.** > 100 µM

**Q.** And the TGI [55]?
**A.** > 100 µM

**Q.** What about the TGI [56] of the same compound?
**A.** > 100 µM

**Q.** What does the source list for CCOC(=O)c1nnsc1NC(=O)NN?
**A.** TGI [1]: > 100 µM; TGI [2]: > 100 µM; TGI [3]: > 100 µM; TGI [4]: > 100 µM; TGI [5]: > 100 µM; TGI [6]: > 100 µM; TGI [7]: > 100 µM; TGI [8]: > 100 µM; TGI [9]: > 100 µM; TGI [10]: > 100 µM; TGI [11]: > 100 µM; TGI [12]: > 100 µM; TGI [13]: > 100 µM; TGI [14]: > 100 µM; TGI [15]: > 100 µM; TGI [16]: > 100 µM; TGI [17]: > 100 µM; TGI [18]: > 100 µM; TGI [19]: > 100 µM; TGI [20]: > 100 µM; TGI [21]: > 100 µM; TGI [22]: > 100 µM; TGI [23]: > 100 µM; TGI [24]: > 100 µM; TGI [25]: > 100 µM; TGI [26]: > 100 µM; TGI [27]: > 100 µM; TGI [28]: > 100 µM; TGI [29]: > 100 µM; TGI [30]: > 100 µM; TGI [31]: > 100 µM; TGI [32]: > 100 µM; TGI [33]: > 100 µM; TGI [35]: > 100 µM; TGI [36]: > 100 µM; TGI [37]: > 100 µM; TGI [38]: > 100 µM; TGI [39]: > 100 µM; TGI [40]: > 100 µM; TGI [41]: > 100 µM; TGI [42]: > 100 µM; TGI [43]: > 100 µM; TGI [44]: > 100 µM; TGI [45]: > 100 µM; TGI [46]: > 100 µM; TGI [47]: > 100 µM; TGI [48]: > 100 µM; TGI [49]: > 100 µM; TGI [50]: > 100 µM; TGI [51]: > 100 µM; TGI [52]: > 100 µM; TGI [53]: > 100 µM; TGI [54]: > 100 µM; TGI [55]: > 100 µM; TGI [56]: > 100 µM
